# System: 922993-354-T-J3-PDC complex spheroids, viability
# Experiment: Anticancer human tumor 922993-354-T-J3-PDC patient-derived endometrial carcinoma cell line growth inhibition [GQUAD]
# Conditions: for IC50: curve of first compound; for viability, T/C: stronger effect = lower value
# Outline: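 Viability of tumor cells grown as complex spheroids with endothelial and stromal cells, exposed to drug combinations. Top concentration at or near clinical Cmax (else 10 microM), diluted in half-log increments.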
# 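Further: spheroids exposed to compounds for seven days.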
# 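Wherever viability, T/C is given: 100% = DMSO vehicle control viability.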
compound,measurement,setting,value
C#Cc1c(F)ccc2cc(O)cc(-c3ncc4c(N5CC6CCC(C5)N6)nc(OCC56CCCN5CC(F)C6)nc4c3F)c12 (configuration not stated) + CN(C)c1ccc(Nc2c3ccc(NC(=O)CCN4CCCC4)cc3nc3cc(NC(=O)CCN4CCCC4)ccc23)cc1,IC50,second compound 0.0316 µM,> 10 µM
same,IC50,second compound 0.1 µM,> 10 µM
same,IC50,second compound 0.316 µM,> 10 µM
same,IC50,second compound 1 µM,> 10 µM
same,IC50,second compound 3.16 µM,> 10 µM
same,IC50,second compound 10 µM,> 10 µM
same,"viability, T/C","second compound 0.0316 µM, first compound 0.0316 µM",93.8%
same,"viability, T/C","second compound 0.0316 µM, first compound 0.1 µM",78.5%
same,"viability, T/C","second compound 0.0316 µM, first compound 0.316 µM",97.2%
same,"viability, T/C","second compound 0.0316 µM, first compound 1 µM",86.9%
same,"viability, T/C","second compound 0.0316 µM, first compound 3.16 µM",95.3%
same,"viability, T/C","second compound 0.0316 µM, first compound 10 µM",81.5%
same,"viability, T/C","second compound 0.1 µM, first compound 0.0316 µM",99.4%
same,"viability, T/C","second compound 0.1 µM, first compound 0.1 µM",89.3%
same,"viability, T/C","second compound 0.1 µM, first compound 0.316 µM",94.3%
same,"viability, T/C","second compound 0.1 µM, first compound 1 µM",100%
same,"viability, T/C","second compound 0.1 µM, first compound 3.16 µM",82.3%
same,"viability, T/C","second compound 0.1 µM, first compound 10 µM",95.9%
same,"viability, T/C","second compound 0.316 µM, first compound 0.0316 µM",71.9%
same,"viability, T/C","second compound 0.316 µM, first compound 0.1 µM",97.4%
same,"viability, T/C","second compound 0.316 µM, first compound 0.316 µM",97.7%
same,"viability, T/C","second compound 0.316 µM, first compound 1 µM",81%
same,"viability, T/C","second compound 0.316 µM, first compound 3.16 µM",87%
same,"viability, T/C","second compound 0.316 µM, first compound 10 µM",76%
same,"viability, T/C","second compound 1 µM, first compound 0.0316 µM",71.4%
same,"viability, T/C","second compound 1 µM, first compound 0.1 µM",86.9%
same,"viability, T/C","second compound 1 µM, first compound 0.316 µM",88.7%
same,"viability, T/C","second compound 1 µM, first compound 1 µM",85.4%
same,"viability, T/C","second compound 1 µM, first compound 3.16 µM",84%
same,"viability, T/C","second compound 1 µM, first compound 10 µM",88.1%
same,"viability, T/C","second compound 3.16 µM, first compound 0.0316 µM",116%
same,"viability, T/C","second compound 3.16 µM, first compound 0.1 µM",102%
same,"viability, T/C","second compound 3.16 µM, first compound 0.316 µM",129%
same,"viability, T/C","second compound 3.16 µM, first compound 1 µM",100%
same,"viability, T/C","second compound 3.16 µM, first compound 3.16 µM",108%
same,"viability, T/C","second compound 3.16 µM, first compound 10 µM",92.8%
same,"viability, T/C","second compound 10 µM, first compound 0.0316 µM",88.3%
same,"viability, T/C","second compound 10 µM, first compound 0.1 µM",133%
same,"viability, T/C","second compound 10 µM, first compound 0.316 µM",108%
same,"viability, T/C","second compound 10 µM, first compound 1 µM",133%
same,"viability, T/C","second compound 10 µM, first compound 3.16 µM",104%
same,"viability, T/C","second compound 10 µM, first compound 10 µM",94.6%
